Assay results as given in US20200339691A1, “PROTEINACEOUS MOLECULES AND USES THEREFOR” (priority 2018, published 2020).
Where a SMILES comes first, the peptide text is derived from it. [ ]: non-standard residue; d: D form. The star is where a group is joined. Myristoyl = CCCCCCCCCCCCCC(=O)*; Orn = NCCC[C@H](N)C(=O)O

Assays:
[1] = tested on: CD44^hiCD24^lo CSCs in MDA-MB-231 cells; assay: FACS analysis of CD44^hiCD24^lo cancer stem cells in MDA-MB-231 cells treated with P1 analogues; format: cell-based, human; conditions: 50 μM peptide, 48 hours; for CD44^hiCD24^lo CSCs (%) / COI, Live Single CD44^hiCD24^lo CSCs (Cell Count): n = 1; for Average Inhibition of CSCs (%) / CD44^hiCD24^lo CSCs (%) Repeat 1 / CD44^hiCD24^lo CSCs (%) Repeat 2 / CD44^hiCD24^lo CSCs (%) Repeat 3: n = 3
Protocol: Analogues of P1 (Table 6) were designed and synthesized in accordance with the procedure of Example 5. The ability of these analogues to inhibit cancer stem cells was determined using FACS analysis on MDA-MB-231 cells, which constitutively contain approximately 90% CD44^hiCD24^lo cancer stem cells, treated with the peptides.
(§1) Non-adherent cells were removed during the washing steps.

MDA-MB-231 cells = format: cell-based, human; conditions: 50 μM peptide, 48 hours, n = 1
Source text: as §1
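Throughout, for COI, Live Single Cells (Cell Count): live means Hoechst-negative events among single cells.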

Structure (SMILES)	Inhibition of CSCs (%) Repeat 1 [1] [%]	Inhibition of CSCs (%) Repeat 2 [1] [%]	Inhibition of CSCs (%) Repeat 3 [1] [%]	CD44^hiCD24^lo CSCs (%) [1] [%]	COI, Live Single CD44^hiCD24^lo CSCs (Cell Count) [1]	Average Inhibition of CSCs (%) [1] [%]	CD44^hiCD24^lo CSCs (%) Repeat 1 [1] [%]	CD44^hiCD24^lo CSCs (%) Repeat 2 [1] [%]	CD44^hiCD24^lo CSCs (%) Repeat 3 [1] [%]	COI (Cell Count) (MDA-MB-231 cells)	COI, Live Single Cells (Cell Count) (MDA-MB-231 cells)	COI, Single (Cell Count) (MDA-MB-231 cells)	Total Cell Count (MDA-MB-231 cells)
CCCCCCCCCCCCCC(=O)N[C@@H](CC(C)C)C(=O)N[C@@H](CCC(=O)O)C(=O)N[C@@H](Cc1ccccc1)C(=O)N[C@H](C(=O)N[C@@H](Cc1ccccc1)C(=O)N[C@@H](CCCNC(=N)N)C(=O)N[C@@H](CC(C)C)C(=O)N[C@@H](CCCNC(=N)N)C(=O)N[C@@H](CCCCN)C(=O)NCC(=O)N[C@@H](CCCNC(=N)N)C(=O)N[C@@H](CCSC)C(=O)N[C@@H](CCSC)C(=O)N[C@@H](CC(=O)O)C(=O)N[C@H](C(=O)N[C@@H](CCCCN)C(=O)N[C@@H](CCCCN)C(N)=O)C(C)C)[C@@H](C)CC [Peptide 2853804, Myristoyl-LEFIFRLRKGRMMDVKK-NH2] (Myristoyl-LEFIFRLRKGRMMDVKK-NH2)	85.86	80.73	86.58	13.77	19	84.39	12.67	17.29	12.05	360	138	203	1384
CCCCCCCCCCCCCC(=O)N[C@@H](CC(C)C)C(=O)N[C@H](C(=O)N[C@@H](Cc1ccccc1)C(=O)N[C@H](C(=O)N[C@@H](Cc1ccccc1)C(=O)N[C@@H](CCCNC(=N)N)C(=O)N[C@@H](CCCCN)C(=O)N[C@@H](CCCNC(=N)N)C(=O)N[C@@H](CCCCN)C(=O)NCC(=O)N[C@@H](CCCNC(=N)N)C(=O)N[C@@H](CCSC)C(=O)N[C@@H](CCSC)C(=O)N[C@@H](CC(=O)O)C(=O)N[C@H](C(=O)N[C@@H](CCCCN)C(=O)N[C@@H](CCCCN)C(N)=O)C(C)C)[C@@H](C)CC)[C@@H](C)O [Peptide 2853822, Myristoyl-LTFIFRKRKGRMMDVKK-NH2] (Myristoyl-LTFIFRKRKGRMMDVKK-NH2)	81.93	81.80	81.03	4.78	31	81.59	16.19	16.33	17.02	768	648	657	3204
CCCCCCCCCCCCCC(=O)N[C@@H](CC(C)C)C(=O)N[C@H](C(=O)N[C@@H](Cc1ccccc1)C(=O)N[C@H](C(=O)N[C@@H](Cc1ccccc1)C(=O)N[C@@H](CCCNC(=N)N)C(=O)N[C@@H](CC(C)C)C(=O)N[C@@H](CCCNC(=N)N)C(=O)N[C@@H](CCCNC(C)=O)C(=O)NCC(=O)N[C@@H](CCCNC(=N)N)C(=O)N[C@@H](CCSC)C(=O)N[C@@H](CCSC)C(=O)N[C@@H](CC(=O)O)C(=O)N[C@H](C(=O)N[C@@H](CCCCN)C(=O)N[C@@H](CCCCN)C(N)=O)C(C)C)[C@@H](C)CC)[C@@H](C)O [Peptide 2853826, Myristoyl-LTFIFRLROrn(Ac)GRMMDVKK-NH2] (Myristoyl-LTFIFRLR[Orn](Ac)GRMMDVKK-NH2)	86.74	80.33	87.62	3.13	5	84.90	11.88	17.65	11.11	554	160	433	3961
CCCCCCCCCCCCCC(=O)N[C@@H](C)C(=O)N[C@H](C(=O)N[C@@H](Cc1ccccc1)C(=O)N[C@H](C(=O)N[C@@H](Cc1ccccc1)C(=O)N[C@@H](CCCNC(=N)N)C(=O)N[C@@H](CC(C)C)C(=O)N[C@@H](CCCNC(=N)N)C(=O)N[C@@H](CCCCN)C(=O)NCC(=O)N[C@@H](CCCNC(=N)N)C(=O)N[C@@H](CCSC)C(=O)N[C@@H](CCSC)C(=O)N[C@@H](CC(=O)O)C(=O)N[C@H](C(=O)N[C@@H](CCCCN)C(=O)N[C@@H](CCCCN)C(N)=O)C(C)C)[C@@H](C)CC)[C@@H](C)O [Peptide 2853801, Myristoyl-ATFIFRLRKGRMMDVKK-NH2] (Myristoyl-ATFIFRLRKGRMMDVKK-NH2)	93.01	94.77	94.78	5.39	102	94.19	6.27	4.69	4.68	2375	1894	2024	8558
CCCCCCCCCCCCCC(=O)N[C@@H](CC(C)C)C(=O)N[C@H](C(=O)N[C@@H](Cc1ccccc1)C(=O)N[C@H](C(=O)N[C@@H](Cc1ccccc1)C(=O)N[C@@H](CCCNC(=N)N)C(=O)N[C@@H](CC(C)C)C(=O)N[C@@H](CCCNC(=N)N)C(=O)N[C@@H](CCCCN)C(=O)NCC(=O)N[C@@H](CCCNC(=N)N)C(=O)N[C@@H](CCSC)C(=O)N[C@@H](CCSC)C(=O)N[C@@H](CC(=O)O)C(=O)N[C@H](C(=O)N[C@@H](CC(C)C)C(=O)N[C@@H](CCCCN)C(N)=O)C(C)C)[C@@H](C)CC)[C@@H](C)O [Peptide 2853842, Myristoyl-LTFIFRLRKGRMMDVLK-NH2] (Myristoyl-LTFIFRLRKGRMMDVLK-NH2)	76.16	78.88	81.46	12.39	27	78.83	21.37	18.95	16.64	325	218	249	3873
CCCCCCCCCCCCCC(=O)N[C@@H](CC(C)C)C(=O)N[C@H](C(=O)N[C@@H](Cc1ccccc1)C(=O)N[C@H](C(=O)N[C@@H](Cc1ccccc1)C(=O)N[C@@H](CCCNC(=N)N)C(=O)N[C@@H](CC(C)C)C(=O)N[C@@H](CCCNC(=N)N)C(=O)N[C@@H](CCCCN)C(=O)N[C@@H](CC(=O)O)C(=O)N[C@@H](CCCNC(=N)N)C(=O)N[C@@H](CCSC)C(=O)N[C@@H](CCSC)C(=O)N[C@@H](CC(=O)O)C(=O)N[C@H](C(=O)N[C@@H](CCCCN)C(=O)N[C@@H](CCCCN)C(N)=O)C(C)C)[C@@H](C)CC)[C@@H](C)O [Peptide 2853827, Myristoyl-LTFIFRLRKDRMMDVKK-NH2] (Myristoyl-LTFIFRLRKDRMMDVKK-NH2)	95.44	91.08	89.47	1.64	1	92.00	4.09	8.00	9.45	170	61	110	4681
CCCCCCCCCCCCCC(=O)N[C@@H](CC(C)C)C(=O)N[C@H](C(=O)N[C@@H](Cc1ccccc1)C(=O)N[C@H](C(=O)N[C@@H](Cc1ccccc1)C(=O)N[C@@H](CCCNC(=N)N)C(=O)N[C@@H](CC(C)C)C(=O)N[C@@H](CCCNC(=N)N)C(=O)N[C@@H](CCCCN)C(=O)NCC(=O)N[C@@H](CCCNC(=N)N)C(=O)N[C@@H](CCSC)C(=O)N[C@@H](CCSC)C(=O)N[C@@H](CC(=O)O)C(=O)N[C@H](C(=O)N[C@@H](CCCCN)C(=O)N[C@@H](CCC(=O)O)C(N)=O)C(C)C)[C@@H](C)CC)[C@@H](C)O [Peptide 2853845, Myristoyl-LTFIFRLRKGRMMDVKE-NH2] (Myristoyl-LTFIFRLRKGRMMDVKE-NH2)	15.69	19.72	17.64	65.10	2612	17.69	75.56	72.02	73.91	4600	4012	4111	5598
CCCCCCCCCCCCCC(=O)N[C@@H](CCCCN)C(=O)N[C@H](C(=O)N[C@@H](Cc1ccccc1)C(=O)N[C@H](C(=O)N[C@@H](Cc1ccccc1)C(=O)N[C@@H](CCCNC(=N)N)C(=O)N[C@@H](CC(C)C)C(=O)N[C@@H](CCCNC(=N)N)C(=O)N[C@@H](CCCCN)C(=O)NCC(=O)N[C@@H](CCCNC(=N)N)C(=O)N[C@@H](CCSC)C(=O)N[C@@H](CCSC)C(=O)N[C@@H](CC(=O)O)C(=O)N[C@H](C(=O)N[C@@H](CCCCN)C(=O)N[C@@H](CCCCN)C(N)=O)C(C)C)[C@@H](C)CC)[C@@H](C)O [Peptide 2853803, Myristoyl-KTFIFRLRKGRMMDVKK-NH2] (Myristoyl-KTFIFRLRKGRMMDVKK-NH2)	27.90	27.33	38.43	60.36	402	31.22	64.62	65.20	55.25	741	666	702	1115
